Measured values: patent US20110182850A1, “ORGANIC COMPOUNDS AND THEIR USES” (priority 2009, published 2011)
Where two headings read alike, the source gives them in different places.

Assays:
in vivo = experiment: in vivo; design: species or system Sprague Dawley rats; details: rat; for Cmax: po, 10 mg/kg
Experimental: Certain compounds of Table A and Comparative Example 1 (Compound A-7 of copending international patent application serial no. PCT/EP08/063,460) are administered as a solution orally via gavage at 10 mg/kg to Sprague Dawley rats at a dosing volume of 10 ml/kg. Samples are collected via a surgically implanted cannula at selected timepoints deemed necessary to characterize pharmacokinetic parameters. Blood samples are placed on wet ice and spun down to plasma within 5 minutes of timepoint collection. Plasma samples are frozen until bioanalytical analysis.
Certain compounds of Table A and Comparative Example 1 are administered intravenously into a surgically implanted cannula as a solution at 1 mg/kg to Sprague Dawley rats at a dosing volume of […]. Samples are collected via another surgically implanted cannula at selected timepoints deemed necessary to characterize pharmacokinetic parameters. Blood samples are placed on wet ice and spun down to plasma within 5 minutes of timepoint collection. Plasma samples are frozen until bioanalytical analysis.

[1] = biological target: T1, HCV NS3-4A serine protease (full-length NS3-4A protein, genotype 1a, strain HCV-1) (Hepatitis C virus genotype 1a, UniProt P26664); experiment: HCV NS3-4A protease assay; type: biochemical; details: Protease IC50
T1 construct: using the full-length NS3-4A protein (genotype 1a, strain HCV-1)
Experimental: The inhibitory activity of certain compounds of Table A against HCV NS3-4A serine protease is determined in a homogenous assay using the full-length NS3-4A protein (genotype 1a, strain HCV-1) and a commercially available internally-quenched fluorogenic peptide substrate as described by Taliani, M., et al. 1996 Anal. Biochem. 240:60-67, which is incorporated by reference in its entirety.

[2] = Measurement of thermodynamic solubility; type: physicochemical; details: thermodynamic from solid, read-out: solubility in water
Experimental: Thermodynamic solubility for the compounds of the invention listed in Table C is measured by a published literature procedure, e.g., Liping Zhou, et al., J. Pharm. Sci (2007) 96(11): 3052-3071.
The DMSO stocks of test compounds previously dissolved in 25 μL of DMSO (˜10 mM) in mini-prep vial (MPV: Whatman, with PVDF filter and 0.45 μm pore size) chamber were evaporated via a GeneVac HT-4X evaporator for approximately 1 hour, at the guard temperature of 30° C. An aliquot of 250 μL buffer solution (pH 1.0 or 6.8) was added into each MPV chamber containing powders reconstituted from DMSO stock solutions. The MPV filter plungers were pushed down into the chamber until the membrane of the filter plunger slightly touched the surface of the buffer to promote equilibrium between the two compartments and to minimize the adsorption due to non-specific binding of samples during the subsequent 24-hr incubation (at 600 RPM at room temperature). Immediately after the 24-hr incubation, the plungers were further pushed down to the bottom of the chambers. More solution was pushed through the membrane and entered the plunger compartment. The filter/chamber assemblies were then put on a shaker for another 30 minutes at 600 RPM. Afterwards, filtrates were further diluted (1:10) with 50/50 acetonitrile/water solvent followed by a thorough mixing process. Both plates with diluted and undiluted filtrates were analyzed by HPLC and quantified against the four-point standard dilution curve of the same test compound (5 μM, 35 μM, 65 μM and 100 μM, respectively). In the current study, solubility reflects the average of triplicate samples tested at each pH.

[3] = pH 1, simulated gastric fluid, pH of about 1
[4] = pH 6.8, aqueous buffer, pH of about 6.8

T1 sequence (P26664 1658-1711): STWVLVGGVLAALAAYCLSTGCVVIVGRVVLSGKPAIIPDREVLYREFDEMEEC
T1 sequence (P26664 1027-1657): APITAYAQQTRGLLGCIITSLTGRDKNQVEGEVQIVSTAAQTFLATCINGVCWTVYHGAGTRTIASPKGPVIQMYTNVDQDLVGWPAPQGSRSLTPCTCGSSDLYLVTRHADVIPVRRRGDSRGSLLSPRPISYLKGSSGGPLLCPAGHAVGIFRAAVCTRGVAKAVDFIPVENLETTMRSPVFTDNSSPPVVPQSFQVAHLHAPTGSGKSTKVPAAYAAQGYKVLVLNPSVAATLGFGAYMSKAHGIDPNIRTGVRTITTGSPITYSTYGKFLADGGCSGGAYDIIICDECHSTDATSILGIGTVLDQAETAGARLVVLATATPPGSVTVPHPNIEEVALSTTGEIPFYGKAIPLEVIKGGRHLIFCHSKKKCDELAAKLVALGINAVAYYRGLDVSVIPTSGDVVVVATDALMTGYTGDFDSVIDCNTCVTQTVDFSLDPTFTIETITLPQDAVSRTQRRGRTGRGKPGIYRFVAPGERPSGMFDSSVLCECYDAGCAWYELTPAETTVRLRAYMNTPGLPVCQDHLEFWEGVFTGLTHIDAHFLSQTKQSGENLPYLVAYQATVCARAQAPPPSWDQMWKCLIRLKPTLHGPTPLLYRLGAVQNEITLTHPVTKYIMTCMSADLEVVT

| Structure (SMILES) | Cmax (in vivo; Sprague Dawley) [nM] | IC50 [1] [nM] | solubility at 24 h [2, 3] [µM] | solubility at 24 h [2, 4] [µM] | bioavailability (in vivo; Sprague Dawley) [%] | bioavailability (in vivo) [%] |
| --- | --- | --- | --- | --- | --- | --- |
| C=C[C@@H]1C[C@]1(NC(=O)[C@@H]1C[C@@]2(CN1C(=O)[C@@H](NC(=O)[C@@H](NC(=O)[C@@H]1CCCCN1C(C)C)C1CCCCC1)C(C)(C)C)C(C)(C)C21CCC1)C(=O)NS(=O)(=O)C1(C)CC1 [Compound 63, (5R,8S)-7-[(2S)-2-{[(2S)-2-cyclohexyl-2-({[(2S)-1-isopropylpiperidin-2-yl]carbonyl}amino)acetyl]amino}-3,3-dimethylbutanoyl]-10,10-dimethyl-N-[(1R,2S)-1-{[(1-methylcyclopropyl)sulfonyl]carbamoyl}-2-vinylcyclopropyl]-7-azadispiro[3.0.4.1]decane-8-carboxamide] | 320 | 1.8 | ≥ 100 | ≥ 30 | – | – |
| CC[C@@H]1C[C@]1(NC(=O)[C@@H]1C[C@@]2(CN1C(=O)[C@@H](NC(=O)[C@@H](NC(=O)[C@@H]1CCCN1CC)C1CCCCC1)C(C)(C)C)C(C)(C)C21CCC1)C(=O)NS(=O)(=O)C1(C)CC1 [Compound 81, (5R,8S)-7-[(2S)-2-{[(2S)-2-cyclohexyl-2-({[(2S)-1-ethylpyrrolidin-2-yl]carbonyl}amino)acetyl]amino}-3,3-dimethylbutanoyl]-N-[(1R,2R)-2-ethyl-1-{[(1-methylcyclopropyl)sulfonyl]carbamoyl}cyclopropyl]-10,10-dimethyl-7-azadispiro[3.0.4.1]decane-8-carboxamide] | 692 | 0.6 | ≥ 100 | ≥ 30 | 22 | – |
| CC[C@@H]1C[C@]1(NC(=O)[C@@H]1C[C@@]2(CN1C(=O)[C@@H](NC(=O)[C@@H](NC(=O)[C@@H]1CCCCN1CC)C1CCCCC1)C(C)(C)C)C(C)(C)C21CCC1)C(=O)NS(=O)(=O)C1(C)CC1 [Compound 83, (5R,8S)-7-[(2S)-2-{[(2S)-2-cyclohexyl-2-({[(2S)-1-ethylpiperidin-2-yl]carbonyl}amino)acetyl]amino}-3,3-dimethylbutanoyl]-N-[(1R,2R)-2-ethyl-1-{[(1-methylcyclopropyl)sulfonyl]carbamoyl}cyclopropyl]-10,10-dimethyl-7-azadispiro[3.0.4.1]decane-8-carboxamide] | 578 | 2.5 | ≥ 100 | ≥ 30 | 26 | – |
| CCCC1(S(=O)(=O)NC(=O)[C@@]2(NC(=O)[C@@H]3C[C@@]4(CN3C(=O)[C@@H](NC(=O)[C@@H](NC(=O)[C@@H]3CCCN3CC)C3CCCCC3)C(C)(C)C)C(C)(C)C43CCC3)C[C@H]2CC)CC1 [Compound 75, (5R,8S)-7-[(2S)-2-{[(2S)-2-cyclohexyl-2-({[(2S)-1-ethylpyrrolidin-2-yl]carbonyl}amino)acetyl]amino}-3,3-dimethylbutanoyl]-N-[(1R,2R)-2-ethyl-1-{[(1-propylcyclopropyl)sulfonyl]carbamoyl}cyclopropyl]-10,10-dimethyl-7-azadispiro[3.0.4.1]decane-8-carboxamide] | 289 | 7 | ≥ 100 | ≥ 30 | – | – |
| C=C[C@@H]1C[C@]1(NC(=O)[C@@H]1C[C@@]2(CN1C(=O)[C@@H](NC(=O)[C@@H](NC(=O)[C@@H]1CCCCN1C(C)C)C1CCCCC1)C(C)(C)C)C(C)(C)C21CCC1)C(=O)NS(=O)(=O)C1(CCC)CC1 [Compound 68, (5R,8S)-7-[(2S)-2-{[(2S)-2-cyclohexyl-2-({[(2S)-1-isopropylpiperidin-2-yl]carbonyl}amino)acetyl]amino}-3,3-dimethylbutanoyl]-10,10-dimethyl-N-[(1R,2S)-1-{[(1-propylcyclopropyl)sulfonyl]carbamoyl}-2-vinylcyclopropyl]-7-azadispiro[3.0.4.1]decane-8-carboxamide] | 348 | 4 | ≥ 100 | ≥ 30 | – | – |
| CC[C@@H]1C[C@]1(NC(=O)[C@@H]1C[C@@]2(CN1C(=O)[C@@H](NC(=O)[C@@H](NC(=O)[C@@H]1CCCCN1C(C)C)C1CCCCC1)C(C)(C)C)C(C)(C)C21CCC1)C(=O)NS(=O)(=O)C1(C)CC1 [Compound 70, (5R,8S)-7-[(2S)-2-{[(2S)-2-cyclohexyl-2-({[(2S)-1-isopropylpiperidin-2-yl]carbonyl}amino)acetyl]amino}-3,3-dimethylbutanoyl]-N-[(1R,2R)-2-ethyl-1-{[(1-methylcyclopropyl)sulfonyl]carbamoyl}cyclopropyl]-10,10-dimethyl-7-azadispiro[3.0.4.1]decane-8-carboxamide] | 130 | 2 | ≥ 100 | ≥ 30 | – | – |
| C=C[C@@H]1C[C@]1(NC(=O)[C@@H]1C[C@@]2(CN1C(=O)[C@@H](NC(=O)OC(C)(C)C)C(C)C)C(C)(C)C21CCC1)C(=O)NS(=O)(=O)C1CC1 [compound 1, tert-butyl [(1S)-1-{[(5R,8S)-8-({(1R,2S)-1-[(cyclopropylsulfonyl)carba-moyl]-2-vinylcyclopropyl}carbamoyl)-10,10-dimethyl-7-azadispiro[3.0.4.1]dec-7-yl]carbonyl}-2-methylpropyl]carbamate, reference compound] | – | – | – | – | – | 2 |
| CCCC1(S(=O)(=O)NC(=O)[C@@]2(NC(=O)[C@@H]3C[C@@]4(CN3C(=O)[C@@H](NC(=O)[C@@H](NC(=O)[C@@H]3CCCCN3CC)C3CCCCC3)C(C)(C)C)C(C)(C)C43CCC3)C[C@H]2CC)CC1 [Compound 76, (5R,8S)-7-[(2S)-2-{[(2S)-2-cyclohexyl-2-({[(2S)-1-ethylpiperidin-2-yl]carbonyl}amino)acetyl]amino}-3,3-dimethylbutanoyl]-N-[(1R,2R)-2-ethyl-1-{[(1-propylcyclopropyl)sulfonyl]carbamoyl}cyclopropyl]-10,10-dimethyl-7-azadispiro[3.0.4.1]decane-8-carboxamide] | – | 6 | ≥ 100 | ≥ 30 | – | – |
